Assays:
[1] = Rat learned helplessness model (active avoidance); conditions: helpless rats; for escape failures (Mean ± SEM) / inter-trial interval (ITI) crossings (Mean ± SEM): 32 mg/kg, po bid
Experimental: In this model, rats are first exposed to inescapable foot shock to induce a helpless state which is then expressed by a subsequent failure to learn to avoid escapable foot shocks (active avoidance).
Helplessness was induced on Day 1 in 5 of the groups by exposing animals to inescapable foot shocks delivered through an electrified stainless steel grid floor every 15 seconds for 1 h. […] Treatment continued on days 2-5 with all subjects receiving test agent or vehicle twice daily (AM and PM). Active avoidance was tested 60 min after the morning dose on Days 3, 4 and 5. All rats were tested in a 2-compartment active avoidance chamber where delivery of foot shock was signaled by a light cue. The test session began with 5 min of free exploration after which 30 stimulus-shock trials were delivered during a 15 min period. Each trial lasted 30 seconds with an initial 24 second rest period, followed by a 6 second light cue presentation with foot shock delivered during the last 3 seconds. […] Failure to avoid full delivery of the foot shock (i.e., failing to cross during 3 second shock presentation) was considered an escape failure. Crossings to the opposite compartment of the shuttle box during the 24 second rest period were recorded as inter-trial interval (ITI) crossings. Escape failures and ITI crossings were analyzed by two way repeated measures ANOVA with treatment as a main factor and test session (i.e., day) as the repeated measure.

[2] = Rat forced swim test, second study (one administration 24 h prior to testing); conditions: 10 mg/kg, ip, positive control, of 60 observations in 5 min, p < 0.05 vs vehicle (footnote a)
Experimental: In both procedures, rats were pre-exposed to a 15 min swim session (day 0) prior to the 5 min FST session which was conducted 24 h later (day 1).
In the second study, adult, male Sprague-Dawley rats (190-234 g, n=10 per group) were dosed on only one occasion immediately after the pre-swim i.e., 24 h prior to testing. […] Behavior was quantified during the 5 min test session using a time sampling technique where the actual behavior observed, i.e., immobility, climbing or swimming, was recorded every 5 seconds for a total of 60 observations. Results were analyzed by one way ANOVA followed by Dunnett's post hoc comparisons.

[3] = literature (Ardalan 2017; Cryan 2005; Koike 2014); acute treatment; cited from earlier work

Row | Structure (SMILES) | escape failures, significance ([1]; 32 mg/kg po bid) | escape failures (Mean ± SEM) ([1]; Day 3) | inter-trial interval (ITI) crossings (Mean ± SEM) ([1]; Day 3) | inter-trial interval (ITI) crossings (Mean ± SEM) ([1]; Day 4) | escape failures (Mean ± SEM) ([1]; Day 4, p < 0.05 vs helpless/vehicle (footnote a)) | inter-trial interval (ITI) crossings (Mean ± SEM) ([1]; Day 5) | escape failures (Mean ± SEM) ([1]; Day 5, p < 0.05 vs helpless/vehicle (footnote a)) | Immobility frequency (Mean ± SEM) [2] | antidepressant-like effects in this dosing protocol (rat FST, dosed 24 h prior to testing) [3]
1 | CN(C)CCCN1c2ccccc2CCc2ccccc21 [Imipramine] | significant reduction in escape failures | 3 ± 1 | 17 ± 2 | 12 ± 2 | 3 ± 2^a | 15 ± 2 | 2 ± 1^a | – | –
2 | CNC1(c2ccccc2Cl)CCCCC1=O (stereo not drawn) [Ketamine] | – | – | – | – | – | – | – | 22.9 ± 3.5^a | antidepressant-like effects
